# From patent US20260022116A1, “IMIDAZOPYRIDINE COMPOUNDS, PREPARATION THEREOF AND THERAPEUTIC USES THEREOF” (SANOFI, priority 2022, published 2026)
# Counter-ions that a name gives are not always drawn.
# Target: ERK5 (Homo sapiens, UniProt Q13164)
# Assay: cell-based
# ERK5, sequence (Q13164 whole entry): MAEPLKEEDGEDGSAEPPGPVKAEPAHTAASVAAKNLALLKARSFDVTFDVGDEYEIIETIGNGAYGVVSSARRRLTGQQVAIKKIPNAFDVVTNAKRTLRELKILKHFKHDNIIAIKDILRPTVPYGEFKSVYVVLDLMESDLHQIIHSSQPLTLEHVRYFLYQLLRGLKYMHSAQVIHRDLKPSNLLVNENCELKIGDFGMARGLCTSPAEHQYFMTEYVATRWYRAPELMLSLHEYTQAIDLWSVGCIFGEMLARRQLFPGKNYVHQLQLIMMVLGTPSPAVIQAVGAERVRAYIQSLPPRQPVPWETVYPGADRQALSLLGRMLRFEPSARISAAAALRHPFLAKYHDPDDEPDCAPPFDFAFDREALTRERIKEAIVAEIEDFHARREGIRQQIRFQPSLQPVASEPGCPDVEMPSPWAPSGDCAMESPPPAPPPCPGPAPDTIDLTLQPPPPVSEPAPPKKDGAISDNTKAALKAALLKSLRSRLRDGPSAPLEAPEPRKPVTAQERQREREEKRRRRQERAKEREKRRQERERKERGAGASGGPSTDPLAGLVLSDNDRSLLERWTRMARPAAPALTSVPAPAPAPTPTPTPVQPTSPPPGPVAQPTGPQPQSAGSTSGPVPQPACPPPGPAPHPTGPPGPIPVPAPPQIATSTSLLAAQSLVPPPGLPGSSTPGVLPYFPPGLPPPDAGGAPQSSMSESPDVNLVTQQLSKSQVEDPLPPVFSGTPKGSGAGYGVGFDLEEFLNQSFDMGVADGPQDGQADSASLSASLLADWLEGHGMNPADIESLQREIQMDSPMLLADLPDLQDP
row,IC50 [µM],SMILES
1,0.027,"Nc1cc(OC(F)(F)F)ccc1C(=O)N1CCC(c2ccnc3[nH]c(C4CCOC4)nc23)CC1 (single isomer, unassigned) [Example 186, [2-amino-4-(trifluoromethoxy)phenyl]-[4-[2-[tetrahydrofuran-3-yl]-3H-imidazo[4,5-b]pyridin-7-yl]-1-piperidyl]methanone]"
2,0.261,"Nc1cc(OC(F)(F)F)ccc1C(=O)N1CCC(c2ccnc3[nH]c(C4CNCC(F)(F)C4)nc23)CC1 (single isomer, unassigned) [Example 162, [2-amino-4-(trifluoromethoxy)phenyl]-[4-[2-[5,5-difluoro-3-piperidyl]-3H-imidazo[4,5-b]pyridin-7-yl]-1-piperidyl]methanone]"
3,0.041,"Nc1cc(OC(F)(F)F)ccc1C(=O)N1CCC(c2ccnc3[nH]c(C4CCOC4)nc23)CC1 (single isomer, unassigned) [Example 187, [2-amino-4-(trifluoromethoxy)phenyl]-[4-[2-[tetrahydrofuran-3-yl]-3H-imidazo[4,5-b]pyridin-7-yl]-1-piperidyl]methanone]"
4,0.195,"CO[C@H]1CC[C@H](c2nc3c(C4CCN(C(=O)c5ccc(OC(F)(F)F)cc5)CC4)ccnc3[nH]2)CC1 [Example 153, (trans)-[4-(trifluoromethoxy)phenyl]-[4-[2-(4-methoxycyclohexyl)-3H-imidazo[4,5-b]pyridin-7-yl]-1-piperidyl]methanone;hydrochloride]"

# The next lines start with the compound.
row,SMILES,IC50 [µM]
1,"CCn1c(=O)c(=O)[nH]c2cc(-c3nc4c(C5CCN(C(=O)c6ccc(OC(F)(F)F)cc6)CC5)ccnc4[nH]3)ccc21 [Example 139, 1-ethyl-3-hydroxy-6-[7-[1-[4-(trifluoromethoxy)benzoyl]-4-piperidyl]-3H-imidazo[4,5-b]pyridin-2-yl]quinoxalin-2-one]",3.27
2,"CC(Oc1ccc(C(F)(F)F)cc1Cl)C(=O)N1CCC(c2ccnc3[nH]c(C4CCOCC4)nc23)CC1 (stereo not drawn) [Example 87, 2-[2-chloro-4-(trifluoromethyl)phenoxy]-1-[4-(2-tetrahydropyran-4-yl-3H-imidazo[4,5-b]pyridin-7-yl)-1-piperidyl]propan-1-one]",> 10
3,"COC12CC(C(=O)N3CCC(c4ccnc5[nH]c(C6CCOCC6)nc45)CC3)(C1)C2 [Example 58, (3-Methoxy-1-bicyclo[1.1.1]pentanyl)-[4-(2-tetrahydropyran-4-yl-3H-imidazo[4,5-b]pyridin-7-yl)-1-piperidyl]methanone]",> 10
4,"O=C(c1nn(-c2ccccc2C(F)(F)F)cc1O)N1CCC(c2ccnc3[nH]c(C4CCOCC4)nc23)CC1 [Example 89, [4-hydroxy-1-[2-(trifluoromethyl)phenyl]pyrazol-3-yl]-[4-(2-tetrahydropyran-4-yl-3H-imidazo[4,5-b]pyridin-7-yl)-1-piperidyl]methanone]",3.16
5,"CCn1cc(N)c(C(=O)N2CCC(c3ccnc4[nH]c(C5CCOCC5)nc34)CC2)n1 [Example 115, (4-amino-1-ethyl-pyrazol-3-yl)-[4-(2-tetrahydropyran-4-yl-3H-imidazo[4,5-b]pyridin-7-yl)-1-piperidyl]methanone]",> 10
6,"O=C(C1CC(=O)N(c2ccc(F)cc2)C1)N1CCC(c2ccnc3[nH]c(C4CCOCC4)nc23)CC1 (stereo not drawn) [Example 111, 1-(4-fluorophenyl)-4-[4-(2-tetrahydropyran-4-yl-3H-imidazo[4,5-b]pyridin-7-yl)piperidine-1-carbonyl]pyrrolidin-2-one]",> 10
7,"Nc1c(C(=O)N2CCC(c3ccnc4[nH]c(C5CCOCC5)nc34)CC2)sc(C(F)(F)F)c1-c1ccccc1 [Example 92, [3-amino-4-phenyl-5-(trifluoromethyl)-2-thienyl]-[4-(2-tetrahydropyran-4-yl-3H-imidazo[4,5-b]pyridin-7-yl)-1-piperidyl]methanone]",2.25
8,"O=C(c1ccc(OC(F)(F)F)cc1)N1CCC(c2ccnc3[nH]c(-c4cnc5ccc(C(F)(F)F)cc5c4O)nc23)CC1 [Example 230, [4-[2-[4-hydroxy-6-(trifluoromethyl)-3-quinolyl]-3H-imidazo[4,5-b]pyridin-7-yl]-1-piperidyl]-[4-(trifluoromethoxy)phenyl]methanone]",6.48
